Experiments:
cyclin D1 protein = assay: Cyclin D1 protein by ICW (control for cycloheximide); assay type: cell-based; conditions: within the 7 hour experimental interval
Description: Compound 13 increased the mRNA levels of E-cadherin specific mRNA by 27-fold in SW620inv cells (FIG. 3B) and by 20-fold in H520 cells (FIG. 3C) by 6 hours post-treatment. […] Whether de novo protein synthesis was required for the effect of Compound 13 on E-cadherin mRNA expression was determined. For these experiments, cells were treated with cycloheximide prior to application of Compound 13 and the expression of E-cadherin mRNA was evaluated 6 hours post-treatment for best sensitivity. The levels of cyclin D1 protein, known to have a very short half-life of ˜20 minutes (Diehl, J. A., et al. (1998) Genes & Development 12, 3499-3511), were analyzed as a positive control for the effectiveness of cycloheximide (CHX) treatment.
Referring to FIG. 4B and FIG. 4C, quantification of cyclin D1 protein by ICW, as described above, and under similar conditions as in (4A) at 6 h post-treatment with or without cyclohexamide.

[1] = test system: E-cadherin, H3K9Ac, H3K4me3, H3K27me3, H3K4me2 in SW620inv cells; assay: Western blot time course of E-cadherin and histone H3 marks, SW620inv cells; assay type: cell-based
HMEC-1 cells = assay: E-cadherin, VE-cadherin, Vimentin and histone marks in HMEC-1 cells (qPCR, Western blot); assay type: cell-based, human; conditions: after 48 hours of treatment

Row | SMILES | cyclin D1 levels (cyclin D1 protein) | β-actin protein levels (cyclin D1 protein) | modification of the repressive marker H3K27me3 [1] | time of peak of H3K9Ac and H3K4me3 levels ([1]; 0.33 μM TSA) [h] | time at which increase in H3K9Ac and H3K4me3 levels is first observed ([1]; 10 μM Compound 13, 0.33 μM TSA) [h] | restoring E-cadherin in HMEC-1 cells (HMEC-1 cells)
1 | C[C@@H]1C[C@@H]([C@H](O)CC2CC(=O)NC(=O)C2)C(=O)[C@@H](C)C1 [cycloheximide] | markedly reduced | not significantly altered |  |  |  | 
2 | CC(/C=C/C(=O)NO)=C\[C@@H](C)C(=O)c1ccc(N(C)C)cc1 [TSA, trichostatin A] |  |  | Less overall modification | 6 | 1 | neither TSA nor 5-Aza, nor the combination of these two agents, was effective
